Data as given in patent US5508311A, “Aliphatic propargylamines as selective MAO-B inhibitors and as neuroprotective agents” (University of Saskatchewan, priority 1993, dated 1996).

Legend:
MAO-A [1] = target: T1, MAO-A (Rattus norvegicus, UniProt P21396); assay: biochemical; assay type: biochemical; details: substrate 5-HT (5 × 10^-4 M); rat liver MAO, in vitro; average of at least 3 independent experiments
T1 sequence (P21396 1-526): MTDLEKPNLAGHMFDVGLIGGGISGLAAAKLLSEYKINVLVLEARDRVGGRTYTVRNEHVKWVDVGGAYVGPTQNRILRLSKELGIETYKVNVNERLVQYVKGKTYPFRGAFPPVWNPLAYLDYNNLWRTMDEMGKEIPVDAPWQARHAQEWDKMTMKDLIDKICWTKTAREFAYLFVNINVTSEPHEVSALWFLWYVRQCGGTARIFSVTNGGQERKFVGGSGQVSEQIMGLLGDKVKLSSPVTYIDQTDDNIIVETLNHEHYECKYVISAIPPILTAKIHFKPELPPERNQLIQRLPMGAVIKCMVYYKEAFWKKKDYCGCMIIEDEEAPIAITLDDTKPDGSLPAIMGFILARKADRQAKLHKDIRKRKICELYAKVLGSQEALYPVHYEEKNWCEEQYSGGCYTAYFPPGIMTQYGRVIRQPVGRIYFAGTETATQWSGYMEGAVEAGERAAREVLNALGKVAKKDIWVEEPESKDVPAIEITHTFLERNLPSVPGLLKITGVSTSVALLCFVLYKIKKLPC
Description: (§1) The aliphatic propargylamine inhibitors (from 1×10^-10 M to 1×10^-4 M) were preincubated with the MAO for 20 min. at ambient room temperature and then the residual enzyme activities were determined by addition of the substrates, followed by further incubation at 37° C. for 30 min. The enzymatic reactions were terminated by the addition of citric acid and the aldehyde products were extracted with toluene: ethyl acetate (1:1, v/v) and the radio-activities assessed in a scintillation counter.

MAO-B [2] = target: T2, MAO-B (Rattus norvegicus, UniProt P19643); assay: biochemical; assay type: biochemical
T2 sequence (P19643 1-520): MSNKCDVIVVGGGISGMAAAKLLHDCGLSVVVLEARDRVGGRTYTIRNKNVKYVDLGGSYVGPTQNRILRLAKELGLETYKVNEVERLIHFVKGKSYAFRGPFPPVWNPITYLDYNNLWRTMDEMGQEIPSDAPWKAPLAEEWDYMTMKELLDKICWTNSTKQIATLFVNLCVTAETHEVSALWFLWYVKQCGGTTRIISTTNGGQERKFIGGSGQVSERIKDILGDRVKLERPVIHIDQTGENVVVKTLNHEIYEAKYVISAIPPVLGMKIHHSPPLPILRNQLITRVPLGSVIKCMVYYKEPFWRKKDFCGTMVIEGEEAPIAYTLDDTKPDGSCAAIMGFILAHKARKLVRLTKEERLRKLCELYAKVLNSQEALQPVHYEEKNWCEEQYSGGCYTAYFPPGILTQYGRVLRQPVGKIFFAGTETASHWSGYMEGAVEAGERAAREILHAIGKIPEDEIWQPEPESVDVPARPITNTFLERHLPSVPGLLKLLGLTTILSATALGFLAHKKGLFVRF
Description: as §1

MAO-A [3] = target: T3, MAO-A (Mus musculus, UniProt Q64133); assay: in vivo; details: ip, 2 h, read-out: 5-HT ID50
T3 construct: MAO activities in the mouse brain after; from tissue
T3 sequence (Q64133 1-526): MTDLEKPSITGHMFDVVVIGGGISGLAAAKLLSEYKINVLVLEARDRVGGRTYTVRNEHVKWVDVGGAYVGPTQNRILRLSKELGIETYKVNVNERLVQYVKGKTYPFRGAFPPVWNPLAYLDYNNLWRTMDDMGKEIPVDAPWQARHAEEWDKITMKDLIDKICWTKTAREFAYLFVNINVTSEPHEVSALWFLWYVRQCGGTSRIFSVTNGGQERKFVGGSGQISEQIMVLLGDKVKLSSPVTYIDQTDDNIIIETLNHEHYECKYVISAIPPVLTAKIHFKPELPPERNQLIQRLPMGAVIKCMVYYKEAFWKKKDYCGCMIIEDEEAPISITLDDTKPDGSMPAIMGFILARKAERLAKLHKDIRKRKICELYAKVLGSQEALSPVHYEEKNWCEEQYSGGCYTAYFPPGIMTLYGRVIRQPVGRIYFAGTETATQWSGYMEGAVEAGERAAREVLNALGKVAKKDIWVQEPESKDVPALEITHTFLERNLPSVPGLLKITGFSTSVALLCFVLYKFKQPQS
Description: Albino Swiss mice were used in this study. The animals were injected intraperitoneally with different doses of the aliphatic propargylamines in 100 μL saline.
0.5, 1, 2, 5, 10, 20, 50, 100 mg/Kg. Striata were dissected from the brai
two hours after i.p. administration of the drugs. MAOA and MAOB activitie
were determined immediately. The values were estimated from doseresponse

MAO-B [4] = target: T4, MAO-B (Mus musculus, UniProt Q8BW75); assay: MAO-B activity in the mouse brain after oral administration (substrate PE); assay type: in vivo; details: 2 hours
T4 construct: MAO activities in the mouse brain after; from tissue
T4 sequence (Q8BW75 1-520): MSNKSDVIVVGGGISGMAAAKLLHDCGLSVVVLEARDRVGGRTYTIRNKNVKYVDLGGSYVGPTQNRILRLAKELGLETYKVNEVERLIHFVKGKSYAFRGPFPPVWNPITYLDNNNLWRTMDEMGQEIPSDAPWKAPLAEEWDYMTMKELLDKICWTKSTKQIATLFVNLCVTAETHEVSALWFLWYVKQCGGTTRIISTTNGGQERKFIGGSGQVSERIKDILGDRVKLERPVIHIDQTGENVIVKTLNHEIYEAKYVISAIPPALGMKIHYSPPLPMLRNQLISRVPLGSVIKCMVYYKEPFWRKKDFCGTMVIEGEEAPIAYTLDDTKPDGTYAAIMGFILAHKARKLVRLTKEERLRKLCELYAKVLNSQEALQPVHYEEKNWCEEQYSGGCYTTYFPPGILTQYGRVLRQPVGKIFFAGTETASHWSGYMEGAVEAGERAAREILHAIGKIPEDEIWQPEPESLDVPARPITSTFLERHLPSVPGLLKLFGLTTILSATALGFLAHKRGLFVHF
Description: (§2) Table 3 indicates the MAO activities in the mouse brain following oral administration of the aliphatic propargylamines.
(§3) of each compound. Striata were dissected from the brain two hours after
(§4) the administration of the drugs. MAOA and MAOB activities were determined
Striata were dissected from the brain two
hours after oral administration of the drugs. MAOB activities were then
determined immediately. The values were estimated from doseresponse

MAO-A [5] = target: T3, MAO-A; assay type: in vivo; details: mouse, in vivo, po, 10 mg/kg
Description: as §2, §3, §4

[6] = mouse, in vivo
Description: The acute toxicity of these compounds is quite low. […]. The aliphatic side-chains of these aliphatic propargyl compounds are similar to those that exist in endogenous lipids and fatty acids and such aliphatic chains are readily oxidized in vivo. […]

Q: What does the source list for `C#CCN(C)C(C)CCC.Cl.O=C(O)C(=O)O` (centres unmarked) [Example M-2-PP, N-(2-Pentyl)-N-methylpropargylamine hydrochloride and oxalate]?
A: IC50 (MAO-A [1]): 10 µM; Ratio MAO-A/MAO-B (MAO-B [2]; rat, liver mitochondrial membranes): 50; IC50 (MAO-B [2]; read-out: PE IC50): 0.2 µM; ED50 (MAO-A [3]): 25 mg/kg; ED50 (MAO-B [4]; mouse, oral, average of 5 animals per dose, estimated from dose response curves, read-out: Inhibition of MAO-B activity, dose response (ID50)): 1 mg/kg; Relative activity PE (MAO-B [4]; oral 10 mg/Kg, PE (1.9 × 10^-5 M), mean ± standard error, saline = 100): 31 ± 4%; Relative activity 5-HT (MAO-A [5]): 89 ± 15; fatality after oral administration [6]: no fatality
